# Reference: patent US20210238197A1, “NOVEL OXOQUINOLIZINE COMPOUNDS FOR THE TREATMENT AND PROPHYLAXIS OF BACTERIAL INFECTION” (Hoffmann-La Roche Inc., priority 2018, published 2021)
# pIC50: −log10 of the molar value. Where two headings read alike, the source gives them in different places.
# Assays:
# [1] = Lyophilisation solubility assay (LYSA); format: physicochemical; conditions: aqueous buffer, thermodynamic from solid; 0.05 M phosphate buffer, pH 6.5; <1.0 = detection limit
# Protocol: The solubility of compounds of present invention was assessed by LYSA assay. Samples were prepared in duplicate from 10 mM DMSO stock solutions (20 μL) diluted in 30 μL pure DMSO. After evaporation of DMSO with a centrifugal vacuum evaporator, the residue was dissolved in 0.05 M phosphate buffer (150 μL, pH 6.5), which was stirred for one hour and shook for two hours. After one night, the solution was filtered using a microtiter filter plate. Then the filtrate and its 1/10 dilution were analyzed by HPLC-UV. In addition a four-point calibration curve was prepared from the 10 mM stock solutions and used for the solubility determination of the compounds.
# [2] = test system: K. pneumoniae (ATCC10031); assay: 50% growth inhibitory concentration (IC50) determination assay, K. pneumoniae; format: cell-based; conditions: Klebsiella pneumoniae, ATCC10031; Iso-Sensitest broth, growth by OD 600 nm over 16 h; <0.098 = detection limit
# Procedure, shortened: (§1)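 Compounds two-fold diluted from 50 to 0.097 μM (final) in Iso-Sensitest broth, inoculum ~5×10^5 CFU/mL. Incubation at 35±2 °C with OD600 read every 20 min over 16 h to track growth.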
# [3] = test system: A. baumannii (ATCC17978); assay: 50% growth inhibitory concentration (IC50) determination assay, A. baumannii; format: cell-based; conditions: Acinetobacter baumannii, ATCC17978; Iso-Sensitest broth, growth by OD 600 nm over 16 h; <0.098 = detection limit
# Procedure, shortened: as §1
# [4] = test system: S. aureus (ATCC29213); assay: 50% growth inhibitory concentration (IC50) determination assay, S. aureus; format: cell-based; conditions: Staphylococcus aureus, ATCC29213; Iso-Sensitest broth, growth by OD 600 nm over 16 h; <0.098 = detection limit
# Procedure, shortened: as §1
# [5] = Cytotoxicity assay (HepG2, CellTiter-Blue); format: cell-based; conditions: human; HepG2 cells, 3 days treatment; >100 = detection limit
# Protocol: The cytotoxicity of compounds of present invention was assessed by HepG2 assay. HepG2 cells (ATCC RB-8065™) were seeded into 96-well plates (1.2×10^4 cells per well) and treated with compounds for 3 days, cell viability was measured at day 3 post compound treatment using the CellTiter-Blue® Cell Viability Assay (Promega, Cat. No. G8082). […], of Cell titer blue buffer were added to each well of the cells, which were incubated for 3 hours at 37° C., and the fluorescence value was measured by a plate reader (Molecular Device SpectraMax M2). The CC50 value of each compound is plotted with GraphPad Prism using four parameter logistic equation.
# [6] = test system: multiple species and strains; assay: microbe, parasite or virus in culture; design: MIC S9 / MIC S7 / MIC S11 / MIC S8 / MIC S10: unit not given beside the values; conditions: for MIC S9: E. coli ATCC 35218
# Procedure, shortened: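 Broth microdilution per CLSI M07-A10 in CAMHB, CAMHB+3% lysed horse blood or HTM. Inoculum was set to OD600 ~0.1, then diluted 1:280 (Gram-positive) or 1:400 (Gram-negative), and plates were incubated 18-24 h at 35±2° C in ambient air. MIC (μg/mL) is the lowest concentration giving no visible growth.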
# [7] = Acinetobacter baumannii, ATCC19606, read-out: MIC S1, A. baumannii ATCC 19606
# [8] = Acinetobacter baumannii, ATCC51432, read-out: MIC S2, A. baumannii ATCC 51432
# [9] = Acinetobacter baumannii, ATCCBAA747, read-out: MIC S3, A. baumannii ATCC BAA-747
# [10] = Escherichia coli, ATCC25922, read-out: MIC S11, E. coli ATCC 25922
# [11] = Escherichia coli, ATCCBAA2340, read-out: MIC S10, E. coli ATCC BAA-2340
# [12] = Klebsiella pneumoniae, ATCC10031, read-out: MIC S4, K. pneumoniae ATCC 10031
# [13] = Klebsiella pneumoniae, ATCC700603, read-out: MIC S5, K. pneumoniae ATCC 700603
# [14] = Klebsiella pneumoniae, ATCCBAA2146, read-out: MIC S6, K. pneumoniae ATCC BAA-2146
# [15] = Pseudomonas aeruginosa, ATCC27853, read-out: MIC S7, P. aeruginosa ATCC 27853
# [16] = Pseudomonas aeruginosa, ATCCBAA2113, read-out: MIC S8, P. aeruginosa ATCC BAA-2113
Compound,solubility thermodynamic [1],pIC50 [2],pIC50 [3],pIC50 [4],CC50 at 3 days [5],"MIC [6, 7]","MIC [6, 8]","MIC [6, 9]",MIC S9 [6],"MIC [6, 10]","MIC [6, 11]","MIC [6, 12]","MIC [6, 13]","MIC [6, 14]","MIC [6, 15]","MIC [6, 16]"
"CNc1cc(F)cc2c1[nH]c1ncc(-c3ccc4ccc(C(=O)O)c(=O)n4c3)c(N3CCC4(C)CN(C)CC34)c12 (stereo not shown) [Example 1.10, 7-[4-(3a,5-dimethyl-3,4,6,6a-tetrahydro-2H-pyrrolo[2,3-c]pyrrol-1-yl)-6-fluoro-8-(methylamino)-9H-pyrido[2,3-b]indol-3-yl]-4-oxo-quinolizine-3-carboxylic acid]",90 µg/mL,> 7.01,> 7.01,> 7.01,–,–,–,–,–,–,–,–,–,–,–,–
"CNc1cc(F)c(F)c2c1[nH]c1ncc(-c3ccc4ccc(C(=O)O)c(=O)n4c3)c(N3CC[C@]4(C[C@H]4N)C3)c12 [Example 4.01C, 7-(4-((1R,3S)-1-amino-5-azaspiro[2.4]heptan-5-yl)-5,6-difluoro-8-(methylamino)-9H-pyrido[2,3-b]indol-3-yl)-4-oxo-4H-quinolizine-3-carboxylic acid]",–,> 7.01,> 7.01,> 7.01,> 100 µM,0.592 µg/mL,0.592 µg/mL,1.19 µg/mL,0.592,0.222 µg/mL,1.19 µg/mL,0.074 µg/mL,2.37 µg/mL,2.37 µg/mL,1.19 µg/mL,2.37 µg/mL
"CNc1cc(F)cc2c1[nH]c1ncc(-c3ccc4ccc(C(=O)O)c(=O)n4c3)c(N3CCO[C@H](CN(C)C)C3)c12 [Example 2.07, (R)-7-(4-(2-((dimethylamino)methyl)morpholino)-6-fluoro-8-(methylamino)-9H-pyrido[2,3-b]indol-3-yl)-4-oxo-4H-quinolizine-3-carboxylic acid]",48 µg/mL,> 7.01,6.62,6.42,–,–,–,–,–,–,–,–,–,–,–,–
"CNc1cc(F)c(F)c2c1[nH]c1ncc(-c3cc(C)c4ccc(C(=O)O)c(=O)n4c3)c(N3CC[C@H]4CN(C)C[C@H]43)c12 (relative stereo) [Example 2.01, 7-(5,6-Difluoro-8-(methylamino)-4-(cis-5-methyl-2,3,3a,4,6,6a-hexahydropyrrolo[2,3-c]pyrrol-1-yl)-9H-pyrido[2,3-b]indol-3-yl)-9-methyl-4-oxo-4H-quinolizine-3-carboxylic acid]",41 µg/mL,> 7.01,> 7.01,> 7.01,–,–,–,–,–,–,–,–,–,–,–,–
"CNc1cc(F)cc2c1[nH]c1ncc(-c3ccc4ccc(C(=O)O)c(=O)n4c3)c(N3C[C@H]4CCN(C)[C@H]4C3)c12 (single isomer, unassigned) [Example 3.01A]",9 µg/mL,> 7.01,> 7.01,> 7.01,–,–,–,–,–,–,–,–,–,–,–,–
"CNc1cc(F)c(F)c2c1[nH]c1ncc(-c3ccc4ccc(C(=O)O)c(=O)n4c3)c(N3CC[C@]4(C[C@@H]4N)C3)c12 [Example 4.01D, 7-(4-((1S,3S)-1-amino-5-azaspiro[2.4]heptan-5-yl)-5,6-difluoro-8-(methylamino)-9H-pyrido[2,3-b]indol-3-yl)-4-oxo-4H-quinolizine-3-carboxylic acid]",–,> 7.01,> 7.01,> 7.01,> 100 µM,0.592 µg/mL,1.19 µg/mL,1.19 µg/mL,1.186,0.111 µg/mL,0.592 µg/mL,0.037 µg/mL,4.74 µg/mL,4.74 µg/mL,1.19 µg/mL,2.37 µg/mL
"CNc1cc(Cl)cc2c1[nH]c1ncc(-c3ccc4ccc(C(=O)O)c(=O)n4c3)c(N3CC[C@H]4CN(C)C[C@H]43)c12 (relative stereo) [Example 1.19, 7-[6-chloro-4-(cis-5-methyl-2,3,3a,4,6,6a-hexahydropyrrolo[2,3-c]pyrrol-1-yl)-8-(methylamino)-9H-pyrido[2,3-b]indol-3-yl]-4-oxo-quinolizine-3-carboxylic acid]",29 µg/mL,> 7.01,> 7.01,6.73,–,–,–,–,–,–,–,–,–,–,–,–
"CNc1cc(F)c(Cl)c2c1[nH]c1ncc(-c3ccc4ccc(C(=O)O)c(=O)n4c3)c(N3CC[C@@]4(C[C@H]4N)C3)c12 [Example 5.01C, 7-(4-((1R,3R)-1-amino-5-azaspiro[2.4]heptan-5-yl)-5-chloro-6-fluoro-8-(methylamino)-9H-pyrido[2,3-b]indol-3-yl)-4-oxo-4H-quinolizine-3-carboxylic acid]",–,> 7.01,> 7.01,> 7.01,> 100 µM,0.516 µg/mL,0.258 µg/mL,0.516 µg/mL,0.258,0.194 µg/mL,0.258 µg/mL,0.032 µg/mL,2.07 µg/mL,2.07 µg/mL,1.03 µg/mL,2.07 µg/mL
"CNc1cc(F)cc2c1[nH]c1ncc(-c3ccc4ccc(C(=O)O)c(=O)n4c3)c(N3CCO[C@@H](CN(C)C)C3)c12 [Example 2.08, (S)-7-(4-(2-((dimethylamino)methyl)morpholino)-6-fluoro-8-(methylamino)-9H-pyrido[2,3-b]indol-3-yl)-4-oxo-4H-quinolizine-3-carboxylic acid]",54 µg/mL,> 7.01,6.88,6.36,–,–,–,–,–,–,–,–,–,–,–,–
"CNc1cc(F)c(F)c2c1[nH]c1ncc(-c3ccc4ccc(C(=O)O)c(=O)n4c3)c(N3CC[C@@H]4CCN(C)[C@@H]4C3)c12 [Example 3.04B, 7-[4-[(3aS,7aS)-1-methyl-3,3a,4,5,7,7a-hexahydro-2H-pyrrolo[2,3-c]pyridin-6-yl]-5,6-difluoro-8-(methylamino)-9H-pyrido[2,3-b]indol-3-yl]-4-oxo-quinolizine-3-carboxylic acid]",–,> 7.01,> 7.01,> 7.01,10.8 µM,0.436 µg/mL,0.436 µg/mL,0.436 µg/mL,0.436,0.164 µg/mL,1.75 µg/mL,0.027 µg/mL,1.75 µg/mL,1.75 µg/mL,0.873 µg/mL,1.75 µg/mL
"CNc1cc(F)c(F)c2c1[nH]c1ncc(-c3ccc4c(C(F)(F)F)cc(C(=O)O)c(=O)n4c3)c(N3CC[C@H]4CN(C)C[C@H]43)c12 (relative stereo) [Example 2.06, 7-[4-[cis-5-methyl-2,3,3a,4,6,6a-hexahydropyrrolo[2,3-c]pyrrol-1-yl]-5,6-difluoro-8-(methylamino)-9H-pyrido[2,3-b]indol-3-yl]-4-oxo-1-(trifluoromethyl)quinolizine-3-carboxylic acid]",7 µg/mL,–,–,–,–,–,–,–,–,–,–,–,–,–,–,–
